pIC50: −log10 of the molar value.
target: not listed separately; test: Compound was tested for the Inhibition of human Secretory phospholipase A 2 acyl hydrolysis using a membrane assay; inactive

Row | Structure (SMILES) | pIC50
1 | CCCCCCCCOC[C@H](CO[P@](=O)(O)OCCN)O[P@@](=O)(O)CCCCCCC | 6.00
2 | CCCCCCCCCCCCCCCCCCOCC(CCC(O)CO)NC(C)=O (configuration not stated) [N-(4,5-Dihydroxy-1-octadecyloxymethyl-pentyl)-acetamide] | 5.05
3 | CCCCCCCCCCCCCCCCCCOCC(COCC(F)(F)F)NC(C)=O (configuration not stated) [N-[1-Octadecyloxymethyl-2-(2,2,2-trifluoro-ethoxy)-ethyl]-acetamide] | 4.00
4 | CCCCCCCCCCCCCCCCCCOCC(CCc1nnn[nH]1)NC(C)=O (configuration not stated) [N-[1-Octadecyloxymethyl-3-(1H-tetrazol-5-yl)-propyl]-acetamide] | 6.24
5 | CCCCCCCCCCCCC(=O)NC(COCCC)COP(=O)(O)OCCO (configuration not stated) [Phosphoric acid 2-hydroxy-ethyl ester 3-propoxy-2-tridecanoylamino-propyl ester] | 6.00
6 | CCCCCCCCCCCCC(=O)NC(CCCC)CCc1nnn[nH]1 (configuration not stated) [Tridecanoic acid {1-[2-(1H-tetrazol-5-yl)-ethyl]-pentyl}-amide] | 5.18

Now from value to compound:

Row | pIC50 | Structure (SMILES)
7 | 5.10 | C=CCCC(COCCCCCCCCCCCCCCCCCC)NC(C)=O (configuration not stated) [N-(1-Octadecyloxymethyl-pent-4-enyl)-acetamide]
8 | 4.22 | CCCCCCCCCCCCCCCCCCOCC(CCCC)NC(C)=O (configuration not stated) [N-(1-Octadecyloxymethyl-pentyl)-acetamide]
9 | 4.30 | CCCCCCCCCCCCCCCCCCOCC(CCS(=O)(=O)c1ccc(C)cc1)NC(C)=O (configuration not stated) [N-[1-Octadecyloxymethyl-3-(toluene-4-sulfonyl)-propyl]-acetamide]
10 | 4.22 | CCCCCCCCCCCCCCCCCCOCC(CC[S+](C)[O-])NC(C)=O (configuration not stated) [N-[1-[(Octadecyloxy)methyl]-3-(methylsulfinyl)propyl]acetamide]

target: Phospholipase A2, membrane associated (group IIA); test: Compound was tested for the Inhibition of human Secretory phospholipase A 2 acyl hydrolysis using a membrane assay; Inactive

Row | pIC50 | Structure (SMILES)
11 | < 3.70 | CCCCCCCCCCCCCCCCCCOCC(CCCCO)NC(C)=O (configuration not stated) [N-(5-Hydroxy-1-octadecyloxymethyl-pentyl)-acetamide]

target: not listed separately; test: Compound was tested for the Inhibition of human Secretory phospholipase A 2 acyl hydrolysis using a membrane assay; inactive; remark: another data set of the same source

Row | pIC50 | Structure (SMILES)
12 | < 3.70 | CCCCCCCCCCCCCCCCCCOCC(CCC1CO1)NC(C)=O (configuration not stated) [N-(1-Octadecyloxymethyl-3-oxiranyl-propyl)-acetamide]
13 | < 3.70 | CCCCCCCCCCCCCCCCCCOCC(CCSc1ccc(C)cc1)NC(C)=O (configuration not stated) [N-(1-Octadecyloxymethyl-3-p-tolylsulfanyl-propyl)-acetamide]
14 | < 3.70 | CCCCCCCCCCCCCCCCCCOCC(CCC(C)=O)NC(C)=O (configuration not stated) [N-(1-Octadecyloxymethyl-4-oxo-pentyl)-acetamide]
15 | < 3.70 | CCCCCCCCCCCCCCCCCCOCC(CCCO)NC(C)=O (configuration not stated) [N-(4-Hydroxy-1-octadecyloxymethyl-butyl)-acetamide]
16 | < 3.70 | CCCCCCCCCCCCCCCCCCOCC(CNS(=O)(=O)c1ccc(C)cc1)NC(C)=O (configuration not stated) [N-[1-Octadecyloxymethyl-2-(toluene-4-sulfonylamino)-ethyl]-acetamide]
17 | < 3.70 | CCCCCCCCCCCCCCCCCCOCC(CC[S+]([O-])c1ccc(C)cc1)NC(C)=O (configuration not stated) [N-{1-(Octadecyloxymethyl)-3-[(4-methylphenyl)sulfinyl]propyl}acetamide]

Source: BindingDB's records for doi:10.1016/S0960-894X(97)00247-3 (1997)
